US20230121179A1, “SKIN BARRIER FUNCTION ENHANCER” (Shiseido Company, Ltd., priority 2020, published 2023)
“And” between values parts separate entries of the source, which are not always exact repeats. Equal values may be shown once.

How the values were obtained:
FLG = test: Microarray gene expression in keratinocytes after UV irradiation through wavelength conversion substance; format: cell-based; parameters: key: O represents the gene whose expression is significantly changed; X represents the gene whose expression is not changed; conditions: Normal Human Epidermal Keratinocytes, UV 100 mJ/cm^2 through wavelength conversion substance solution, no direct contact, 24 h incubation
Description: (§1) Lumate G is a zinc oxide phosphor obtained by doping ZnO with a sulfur-containing compound and then firing as described in International Patent Publication No. 2018/004006, the absorption spectrum having a peak wavelength at 365 nm and the emission spectrum having a peak wavelength at 510 nm. • (4) Magnesium titanate phosphor Lumate R by Sakai Chemical Industry Co., Ltd. was used. Lumate R is a magnesium titanate phosphor obtained by doping MgTiO3 with manganese, the absorption spectrum having a peak wavelength at 365 nm and the emission spectrum having peak wavelengths in the range of 660 to 680 nm. • The wavelength conversion substances of (1) and (2) were dissolved in water to prepare solutions at concentrations of 1% and 5%. • The wavelength conversion substances of (3) and (4) were dispersed in alcohol to prepare 5% and 10% dispersions.
(§2) Cell samples were prepared in the following manner. • 1. Human human skin keratinocytes (Normal Human Epidermal Keratinocytes, PromoCell) were used. A cell suspension (1 mL) stored with liquid nitrogen was placed in a hot water bath (37° C.) and thawed until small ice pellets remained, and then diluted with 9 mL of warm KGM medium. • 2. The diluted suspension was gently mixed and transferred to a T75 flask, and incubated overnight at 37° C. • 3. On the following day, the medium was exchanged with 10 mL of fresh medium. • 4. The medium was periodically exchanged (once every 2 - 3 days), while continuing growth of the cells. During this time, a microscope was used to observe the cells and to confirm that the cells had proliferated with the proper form. • 5. Once the cells reached approximately 80% confluence, they were subcultured. • 6. Subculturing of the cells was carried out by rinsing and aspirating once in 10 mL of warm PBS. • 7. 5 mL of warm trypsin was added to the T75 flask to cover the bottom of the flask with the trypsin solution, and the mixture was aspirated after standing for 1 minute at room temperature. • 8. The flask was set in an oven at 37° C. for 5 minutes (maximum) for keratinocytes. A microscope was used to observe the cells, confirming that they were small and elliptical. • 9. The sides of the T75 flask were then lightly tapped to free the cells. A microscope was used to observe the cells and confirm that they were freely moving. • 10. The keratinocytes were resuspended in 5 mL of warm trypsin neutralizing solution, transferred to a sterilized 50 mL Falcon tube. The flask was further rinsed with 5 mL of warm FGM and added to the Falcon tube, to ensure transfer of all of the cells. • 11.. The cells were centrifuged at […] for 5 minutes (4° C.), and the supernatant was carefully removed while avoiding disturbing the cell pellet. • 12. The keratinocytes were resuspended in KGM at a concentration of 2 × 10^4 cells/well (500 µL), and plated in collagen coated glass bottom 4-well chamber slide. • 13. The medium was replaced every two or three days, and cells were proliferated until they reached 60 to 70% confluence (differing for the type of experiment). • 14. At 24 hours before irradiation, the medium was changed to non-supplemented medium.
(§3) • 1. At least 30 minutes prior to irradiation, the power source of a solar simulator was activated to warm up the lamp. The solar simulator used was a UG11 filter. A UG11 filter is a filter that allows passage of UVB alone while cutting light of other wavelengths. […] The temperature control plate was turned on and set to 33° C. • 3. The cells prepared in Experiment 1-2 were rinsed once with warm PBS. • 4. A 0.5 mL portion of warmed Martinez solution (145 mM NaCl, 5.5 mM KC1, 1.2 mM MgCl2·6H2O, 1.2 mM NaH2PO4·2H2O, 7.5 mM HEPES, 1 mM CaCl2 and 10 mM D-glucose) was added to each well. • 5. […] The irradiation was carried out to a total radiation dose of 100 mJ/cm^2. […]

CDSN = test: as above; format: cell-based; parameters: key: O represents the gene whose expression is significantly changed; X represents the gene whose expression is not changed; conditions: Normal Human Epidermal Keratinocytes, UV 100 mJ/cm^2 through wavelength conversion substance solution, no direct contact, 24 h incubation
Description: as §1, §2, §3

INV = test: as above; format: cell-based; parameters: key: O represents the gene whose expression is significantly changed; X represents the gene whose expression is not changed; conditions: Normal Human Epidermal Keratinocytes, UV 100 mJ/cm^2 through wavelength conversion substance solution, no direct contact, 24 h incubation
Description: as §1, §2, §3

SMPD1 = test: as above; format: cell-based; parameters: key: O represents the gene whose expression is significantly changed; X represents the gene whose expression is not changed; conditions: Normal Human Epidermal Keratinocytes, UV 100 mJ/cm^2 through wavelength conversion substance solution, no direct contact, 24 h incubation
Description: as §1, §2, §3

CASP14 = test: as above; format: cell-based; parameters: key: O represents the gene whose expression is significantly changed; X represents the gene whose expression is not changed; conditions: Normal Human Epidermal Keratinocytes, UV 100 mJ/cm^2 through wavelength conversion substance solution, no direct contact, 24 h incubation
Description: as §1, §2, §3

TGase1 = test: as above; format: cell-based; parameters: key: O represents the gene whose expression is significantly changed; X represents the gene whose expression is not changed; conditions: Normal Human Epidermal Keratinocytes, UV 100 mJ/cm^2 through wavelength conversion substance solution, no direct contact, 24 h incubation
Description: as §1, §2, §3

LOR = test: as above; format: cell-based; parameters: key: O represents the gene whose expression is significantly changed; X represents the gene whose expression is not changed; conditions: Normal Human Epidermal Keratinocytes, UV 100 mJ/cm^2 through wavelength conversion substance solution, no direct contact, 24 h incubation
Description: as §1, §2, §3

[1] = Absorption and emission spectra of wavelength conversion substances; format: physicochemical
Description: as §1

Compound	FLG gene expression change (FLG)	CDSN gene expression change (CDSN)	INV gene expression change (INV)	SMPD1 gene expression change (SMPD1)	CASP14 gene expression change (CASP14)	TGase1 gene expression change (TGase1)	LOR gene expression change (LOR)	absorption spectrum peak wavelength [1] [nm]	emission spectrum peak wavelength [1]
Cc1cc2nc3c(=O)[nH]c(=O)nc-3n(C[C@H](O)[C@H](O)[C@H](O)CO)c2cc1C [Vitamin B2, Riboflavin, reference compound]	O	O	O	O	O	O	X	445	530 nm
C-phycocyanin [Lina Blue]	O	O	O	O	O	O	O	350	640 nm and 700 nm
